# “And” between values parts separate entries of the source, which are not always exact repeats. Equal values may be shown once. “Also recorded” adds a separate entry of the source. Non-standard residues stand in square brackets, D forms with d. Residues, ends and D or L forms follow the SMILES beside them. d1Nal = N[C@H](Cc1cccc2ccccc12)C(=O)O; NMeF = CN[C@@H](Cc1ccccc1)C(=O)O; dCha = N[C@H](CC1CCCCC1)C(=O)O
# T1: human C5aR (Homo sapiens, UniProt P21730)
# T1 construct: host or cells: CHO cells, stably transfected (G418 selection)
# T1 sequence (P21730 1-350): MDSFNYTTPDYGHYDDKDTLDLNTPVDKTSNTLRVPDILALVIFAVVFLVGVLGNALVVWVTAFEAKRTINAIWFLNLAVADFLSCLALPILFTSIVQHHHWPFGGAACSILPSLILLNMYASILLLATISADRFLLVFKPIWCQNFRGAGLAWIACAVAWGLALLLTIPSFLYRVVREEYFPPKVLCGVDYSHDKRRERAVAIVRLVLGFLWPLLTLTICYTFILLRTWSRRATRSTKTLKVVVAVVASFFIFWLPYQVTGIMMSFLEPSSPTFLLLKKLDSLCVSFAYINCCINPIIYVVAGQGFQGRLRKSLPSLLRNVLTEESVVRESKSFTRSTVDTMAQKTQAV
# B1: C5a des-Arg (protein)
# chain: TLQKKIEEIAAKYKHSVVKKCCYDGACVNNDETCEQRAARISLGPRCIKAFTECCVVASQLRANISHKDMQLG
# modifications: glycosylated (N-glycan at Asn64 of C5a, Asn741 of precursor, by convention); three intrachain disulfides
# notes: C5a minus its C-terminal arginine, purchased from Merck
# B2: C5a: endogenous 74 residue protein ligand of human C5aR, purchased from Sigma Aldrich and Sino Biological Inc (protein, UniProt P01031 678-751, looked up)
# C5a anaphylatoxin: TLQKKIEEIAAKYKHSVVKKCCYDGACVNNDETCEQRAARISLGPRCIKAFTECCVVASQLRANISHKDMQLGR
# modifications: C5a anaphylatoxin
# notes: endogenous 74 residue protein ligand of human C5aR, purchased from Sigma Aldrich and Sino Biological Inc
# Key:
# human C5aR [1] = molecular target: T1, human C5aR; assay: 125I-C5a competitive receptor binding (SPA) on HMDM; conditions: for IC50: 25 pM 125I-C5a, 95% confidence intervals in brackets
# Text: (§1) The scintillation proximity assay (SPA) was used to study ligand binding interactions with the receptor. The basic principle of the assay involved coupling receptor membrane preparations to coated SPA beads. When a radiolabelled ligand, which is able to bind to the receptor coupled onto the SPA bead, interacts with the receptor it will be close enough in proximity to activate the SPA bead. The radiolabel emits radiation that leads to the production of a light signal by activation of the scintillant in the bead. More specifically for our studies, receptor binding studies were performed using Polyvinyltoluene (PVT) scintillation beads, which have wheat germ agglutinin (WGA) covalently attached on the surface (Perkin Elmer). These beads allow for the development of a homogeneous GPCR radioligand binding assay using cellular membranes or whole cells. Briefly, receptor SPA studies were performed in 96-well white isoplates with clear flat bottoms (Perkin Elmer). ^125I-C5a (~25 pM) (specific activity, 2,200 Ci/mmol) (Perkin Elmer) was added to either CHO-C5aR membrane preparations (~2 µg/well) or HMDM (25,000 cells/well). SPA beads (200 µg/well) were then added, followed by the addition of various concentrations of competing ligands (6 pM to 100 µM) in a total volume of 80 µL of buffer A (CHO-C5aR) or B (HMDM) (50 mM Tris-HCl, pH 7.4, 0.5% BSA, and either 5 mM MgCl2, 1 mM CaCl2 (A) or 3 mM MgCl2, 0.1 mM CaCl2 (B)). The final reaction volume per well comprised 20 µL of ligand/buffer, 20 µL of PVT WGA SPA beads, 20 µL of membrane/cells and the assay was initiated by the addition of 20 µL of ^125I-C5a. The plate was then sealed using TopSeal-A (Perkin Elmer) sealing film and incubated with shaking for 1 h at room temperature. Radioligand binding was then assessed for 30 s/well using a 1450 Microbeta scintillation counter (Perkin Elmer). All binding and subsequent assay data, unless stated otherwise, was analysed using GraphPad Prism 5.0c (GraphPAD Software Inc., San Diego, CA, USA).
# human C5aR [2] = molecular target: T1, human C5aR; assay: 125I-C5a competitive receptor binding (SPA) on CHO-C5aR membranes; conditions: for IC50: CHO-C5aR membranes, 25 pM 125I-C5a, 95% confidence intervals in brackets
# Protocol: Membranes were prepared from CHO-C5aR cells by modification of a previously described method. Briefly, cells were washed with PBS, pH 7.4, and harvested into buffer (50 mM Tris-HCl, pH 7.4, 5 mM MgCl2, 1 mM CaCl2) before homogenising with a Polytron homogeniser for 3 min on setting 22. Cells were centrifuged at 150× g for 5 min at 4 °C. The supernatant was recovered and centrifuged at 22,000× g for 1 h at 4 °C. Membrane pellets were then resuspended in 0.4 mL of ice-cold assay buffer A (50 mM Tris-HCl, pH 7.4, 5 mM MgCl2, 1 mM CaCl2, 0.5% bovine serum albumin (BSA) (Sigma Aldrich) containing 10% glycerol) with aliquots stored at −80 °C. The protein concentration of the membrane preparations was determined by the Bradford method.
# as §1
# human C5aR [3] = molecular target: T1, human C5aR; assay: Alphascreen SureFire phospho-ERK1/2 assay in HMDM; assay type: cell-based; conditions: for EC50: 95% confidence intervals in brackets, read-out: ERK (EC50)
# Protocol: (§2) Alphascreen (Amplified Luminescent Proximity Homogeneous Assay Screen) SureFire phospho-ERK1/2 assay was performed according to manufacturers’ instructions (Perkin Elmer). AlphaScreen involves the use of two beads, denoted the donor and acceptor beads. When both beads are bound as a pair to an analyte and the donor bead is excited, a singlet oxygen is released which activates the acceptor bead. As there is a distance constraint here, only beads in close proximity can lead to further reactions that produce the detectable chemiluminescent signal. Briefly, HMDM and CHO-C5aR cells were serum starved and incubated in 96-well tissue culture plates (Nunc) overnight at 60,000 and 50,000 cells/well, respectively. Ligands were prepared in serum-free media at a final DMSO concentration of 1%. Ligands were incubated at room temperature for 10 and 15 min with HMDM and CHO-C5aR, respectively. Media was removed and cells were lysed with lysis buffer for 10 min on a shaker, 4 μL of lysate was transferred to a white 96-well half area plate (Perkin Elmer) and incubated in the presence of 7 μL of reaction mix. The plate was sealed with TopSeal-A, incubated for 2 h at 37 °C and measured on an Envision plate reader (Perkin Elmer). Each data point was performed in triplicate and repeated in at least three separate experiments.
# human C5aR [4] = molecular target: T1, human C5aR; assay: Alphascreen SureFire phospho-ERK1/2 assay in CHO-C5aR cells; assay type: cell-based; conditions: for EC50: 95% confidence intervals in brackets, read-out: ERK (EC50)
# Protocol: as §2
# human C5aR [5] = molecular target: T1, human C5aR; assay: EPIC label-free optical system on HMDM; assay type: cell-based; conditions: peak response ~5 min, 95% confidence intervals in brackets
# Protocol: (§3) HMDM were seeded, at 50,000 cells/well and CHO-C5aR and CHO-K1 at 7,500 cells/well, into fibronectin-coated cell-based EPIC® plates (Corning) and incubated overnight. Prior to ligand addition, media was exchanged for HBSS (Invitrogen Life Technologies): 20 mM HEPES (Sigma Aldrich) buffer, supplemented with 0.5% DMSO, and allowed to equilibrate at 26 °C for 1 h (HMDM) or 2 h (CHO-C5aR and CHO-K1) within the instrument. Agonists were prepared at a final DMSO concentration of 0.5% in HBSS:HEPES buffer. After ligand addition, measurements were taken continuously for 1–2 h at 26 °C. Peak amplitude response (Figure 2) was measured for data analysis using Corning EPIC® software.
# human C5aR [6] = molecular target: T1, human C5aR; assay: EPIC label-free optical system on CHO-C5aR cells; assay type: cell-based; conditions: peak response ~5 min, 95% confidence intervals in brackets
# Protocol: as §3
# human C5aR [7] = molecular target: T1, human C5aR; assay: xCELLigence label-free impedance system on HMDM; assay type: cell-based; conditions: predominant peak ~3.5 min, 95% confidence intervals in brackets
# Protocol: (§4) HMDM were seeded at 30,000 cells/well, CHO-C5aR at 5,000 cells/well and CHO-K1 at 7,500 cells/well and incubated overnight in 384-well E-Plates (Roche). Ligand preparation and cell treatment was as described for the EPIC® protocol above. However, during the buffer exchange equilibration steps, cells were kept in the incubator at 37 °C with 5% CO2. HMDM were media exchanged with serum-free IMDM and incubated for 2 h prior to ligand addition with recordings at 37 °C. Ligands for the HMDM experiments were prepared in serum-free media. To ensure consistency with the EPIC® data, time point for data analysis was determined by a number of different factors, mainly maximum response of predominant peak (Figure 2), but point at which the EC50 was stable over this time according to the RTCA software was also used to confirm the time point
# human C5aR [8] = molecular target: T1, human C5aR; assay: xCELLigence label-free impedance system on CHO-C5aR cells; assay type: cell-based; conditions: predominant peak ~3.5 min, 95% confidence intervals in brackets
# Protocol: as §4
# C5aR [9] = test system: C5aR; parameters: method as in PMID 7930622; conditions: neutrophils; cited from earlier work
# C5aR [10] = conditions: different cell types and assay platforms; cited from earlier work
Molecule,IC50 (human C5aR [1]),IC50 (human C5aR [2]),ERK response relative to the native ligand C5a (efficacy) (human C5aR [3]),EC50 (human C5aR [3]),ERK EC50 relative to that of C5a (human C5aR [4]),ERK response relative to the native ligand C5a (efficacy) (human C5aR [4]),EC50 (human C5aR [4]),EC50 (human C5aR [5]),EC50 (human C5aR [6]),EC50 (human C5aR [7]),EC50 (human C5aR [8]),Functional character in myeloperoxidase release (C5aR [9]),Difference in binding IC50 relative to C5a (human C5aR [1]),Difference in binding IC50 relative to C5a (human C5aR [2]; CHO-C5aR),Reduction in potency compared to C5a (C5aR [10])
"CN[C@@H](Cc1ccccc1)C(=O)N[C@@H](CCCCN)C(=O)N1CCC[C@H]1C(=O)N[C@H](CC1CCCCC1)C(=O)N[C@H](CC1CCCCC1)C(=O)N[C@H](CCCNC(=N)N)C(=O)O [Peptide agonist, NMePhe-Lys-Pro-dCha-dCha-dArg-COOH] (H-[NMeF]KP[dCha][dCha][dR]-OH)",132 nM,47 nM,characteristics of a partial agonist; also recorded: partial agonist activity,120 nM,~ 30 fold,potentiation of the response relative to the native ligand,5 nM,563 nM,347 nM,546 nM,351 nM,full agonist,,,
"CN[C@@H](Cc1ccccc1)C(=O)N[C@@H](CCCCN)C(=O)N1CCC[C@H]1C(=O)N[C@H](CC1CCCCC1)C(=O)N[C@H](Cc1cccc2ccccc12)C(=O)N[C@H](CCCNC(=N)N)C(=O)O [Peptide partial agonist, NMePhe-Lys-Pro-dCha-dNal-dArg-COOH] (H-[NMeF]KP[dCha][d1Nal][dR]-OH)",,,approximately half of the response relative to C5a,,,approximately half of the response relative to C5a,,,,,,,,,
C5a des-Arg,,,,,,,,,,,,,~ 2 fold,~ 6 fold,"10–1,000 fold"
B1,2.5 nM,1.2 nM and 1.23 nM,,0.55 nM,,,2 nM,47 nM,11 nM,20 nM,44 nM,,,,
B2,1.2 nM,0.2 nM,,0.47 nM,,,0.15 nM,107 nM,24 nM,89 nM,16 nM,,,,

# Reference: paper PMC4263554, “A Comparative Study of Impedance versus Optical Label-Free Systems Relative to Labelled Assays in a Predominantly Gi Coupled GPCR (C5aR) Signalling” (Biosensors, 2012)
